Assay results: patent US20100022491A1, “4-HYDROXY-2-OXO-2,3-DIHYDRO-1,3-BENZOTHIAZOL-7YL COMPOUNDS FOR MODULATION OF B2-ADRENORECEPTOR ACTIVITY” (ASTRAZENECA AB, priority 2006, published 2010)
Where a name gives a salt, the structure may show the parent alone.

Key:
[1] = biological target: T1, recombinant human Dopamine Subtype D2s receptors (Homo sapiens, UniProt P14416); assay: Dopamine D2 selectivity binding assay ([3H]-spiperone); conditions: inhibition of [3H]-spiperone (0.16 nM) binding; for IC50: read-out: D2 bind pIC50 (converted)
T1 construct: purchased Perkin Elmer
In short: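 Recombinant human D2s membranes incubated 2 h at room temperature with 0.16 nM [3H]-spiperone in HEPES/EDTA/NaCl/gelatin buffer, pH 7.4; 10 μM haloperidol defined non-specific binding. Filter-bound radioactivity counted after cold washes. pIC50 from 4-parameter logistic fit of NSB-corrected specific binding.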

Adrenergic β2 = biological target: T2, Adrenergic β2 (Homo sapiens, UniProt P07550); assay: Adrenergic β2 mediated cAMP production in H292 cells; assay type: cell-based; conditions: for EC50 / β2 pEC50: H292 cells, cAMP by AlphaScreen, 60 minutes at room temperature, rolipram 300 μM; for EC50: read-out: β2 pEC50 (converted); for β2 Int Act: Intrinsic Activity as a fraction relative to the maximum activity determined for formoterol
T2 construct: Adherent H292 cells were removed from tissue culture flasks; endogenous in cells; host or cells: H292 cells
In short: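 H292 cells pretreated 10 min with rolipram (300 μM final), then exposed to agonist 60 min at room temperature in HEPES-buffered HBSS, 1.6% DMSO final. Lysate cAMP quantified by AlphaScreen against a cAMP standard curve; four-parameter fit gives pEC50 and intrinsic activity relative to formoterol maximum.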

T1 sequence (P14416 1-414 isoform P14416-2): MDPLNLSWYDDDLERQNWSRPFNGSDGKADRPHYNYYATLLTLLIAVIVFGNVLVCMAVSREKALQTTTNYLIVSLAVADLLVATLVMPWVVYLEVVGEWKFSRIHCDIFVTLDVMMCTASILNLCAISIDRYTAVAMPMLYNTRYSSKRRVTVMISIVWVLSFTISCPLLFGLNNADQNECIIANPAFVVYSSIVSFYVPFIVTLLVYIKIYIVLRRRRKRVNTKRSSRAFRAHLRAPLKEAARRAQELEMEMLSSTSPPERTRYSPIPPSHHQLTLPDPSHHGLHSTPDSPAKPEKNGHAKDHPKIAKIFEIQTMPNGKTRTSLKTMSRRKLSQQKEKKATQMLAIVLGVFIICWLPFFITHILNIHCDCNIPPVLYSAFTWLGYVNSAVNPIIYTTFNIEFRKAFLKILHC
T2 sequence (P07550 whole entry): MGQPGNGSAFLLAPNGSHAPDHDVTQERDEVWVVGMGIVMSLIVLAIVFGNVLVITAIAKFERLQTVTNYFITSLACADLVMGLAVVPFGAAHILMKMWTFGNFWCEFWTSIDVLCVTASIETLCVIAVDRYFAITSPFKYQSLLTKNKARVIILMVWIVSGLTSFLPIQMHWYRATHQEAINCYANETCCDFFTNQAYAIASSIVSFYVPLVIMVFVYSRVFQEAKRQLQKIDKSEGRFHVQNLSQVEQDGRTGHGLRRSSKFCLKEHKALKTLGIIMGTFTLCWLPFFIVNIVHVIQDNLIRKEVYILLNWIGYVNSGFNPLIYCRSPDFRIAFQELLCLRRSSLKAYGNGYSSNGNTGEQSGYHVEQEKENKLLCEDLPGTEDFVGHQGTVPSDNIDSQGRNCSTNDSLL

Structure (SMILES) | IC50 [1] [nM] | EC50 (Adrenergic β2) [nM] | β2 Int Act (Adrenergic β2) | D2 bind pIC50 [1] | β2 pEC50 (Adrenergic β2)
O=C(CCNCCc1cccs1)N(CCNCCc1ccc(O)c2[nH]c(=O)sc12)C1CCCCC1 [Example 35, N-Cyclohexyl-N-(2-{[2-(4-hydroxy-2-oxo-2,3-dihydro-1,3-benzothiazol-7-yl)ethyl]amino}ethyl)-N^3-[2-(2-thienyl)ethyl]-β-alaninamide bis-trifluoroacetic acid salt] | 316 | 3.98 | 0.91 |  | 
O=C(CCNCCc1cc(F)cc(F)c1)N(CCNCCc1ccc(O)c2[nH]c(=O)sc12)C1CCCCC1 [Example 78, N^1-Cyclohexyl-N^3-[2-(3,5-difluorophenyl)ethyl]-N^1-(2-{[2-(4-hydroxy-2-oxo-2,3-dihydro-1,3-benzothiazol-7-yl)ethyl]amino}ethyl)-β-alaninamide bis-trifluoroacetic acid salt] | 316 | 3.16 | 0.91 |  | 
O=C(CCNCCc1ccc(Cl)c(Cl)c1)N(CCNCCc1ccc(O)c2[nH]c(=O)sc12)C1CCOCC1 [Example 94, N^3-[2-(3,4-Dichlorophenyl)ethyl]-N-(2-{[2-(4-hydroxy-2-oxo-2,3-dihydro-1,3-benzothiazol-7-yl)ethyl]amino}ethyl)-N-(tetrahydro-2H-pyran-4-yl)-β-alaninamide dihydrobromide salt] |  |  |  | 6.1 | 8.1
Cc1ccccc1CCNCCC(=O)N(CCNCCc1ccc(O)c2[nH]c(=O)sc12)C1CCOCC1 [Example 27, N-(2-{[2-(4-Hydroxy-2-oxo-2,3-dihydro-1,3-benzothiazol-7-yl)ethyl]amino}ethyl)-N^3-[2-(2-methylphenyl)ethyl]-N-(tetrahydro-2H-pyran-4-yl)-β-alaninamide bis-trifluoroacetic acid salt] | 3160 | 10 | 0.95 |  | 
O=C(CCNCCc1ccc(F)c(F)c1)N(CCNCCc1ccc(O)c2[nH]c(=O)sc12)C1CCCCCC1 [Example 53, N^1-Cycloheptyl-N^1-[2-(3,4-difluorophenyl)ethyl]-N^1-(2-{[2-(4-hydroxy-2-oxo-2,3-dihydro-1,3-benzothiazol-7-yl)ethyl]amino}ethyl)-β-alaninamide bis-trifluoroacetic acid salt] | 79.4 | 10 | 0.74 |  | 
CCCC(CCC)N(CCNCCc1ccc(O)c2[nH]c(=O)sc12)C(=O)CCNCCc1cccc(F)c1 [Example 63, N^3-[2-(3-Fluorophenyl)ethyl]-N^1-(2-{[2-(4-hydroxy-2-oxo-2,3-dihydro-1,3-benzothiazol-7-yl)ethyl]amino}ethyl)-N^1-(1-propylbutyl)-β-alaninamide bis-trifluoroacetic acid salt] | 200 | 79.4 | 0.93 |  | 
CC(C)(C)CN(CCNCCc1ccc(O)c2[nH]c(=O)sc12)C(=O)CCNCCc1cccc(Cl)c1 [Example 7, N^3-[2-(3-Chlorophenyl)ethyl]-N-(2,2-dimethylpropyl)-N-(2-{[2-(4-hydroxy-2-oxo-2,3-dihydro-1,3-benzothiazol-7-yl)ethyl]amino}ethyl)-β-alaninamide bis-trifluoroacetic acid salt] | 316 | 3.98 | 0.68 |  | 
O=C(CCNCCc1ccc(F)cc1)N(CCNCCc1ccc(O)c2[nH]c(=O)sc12)CC12CC3CC(CC(C3)C1)C2 [Example 61, N^1-(1-Adamantylmethyl)-N^3-[2-(4-fluorophenyl)ethyl]-N^1-(2-{[2-(4-hydroxy-2-oxo-2,3-dihydro-1,3-benzothiazol-7-yl)ethyl]amino}ethyl)-β-alaninamide bis-trifluoroacetic acid salt] | 794 | 10 | 0.79 |  | 
CC(C)(C)CN(CCNCCc1ccc(O)c2[nH]c(=O)sc12)C(=O)CCNCCc1ccc(Cl)c(Cl)c1 [Example 9, N^3-[2-(3,4-Dichlorophenyl)ethyl]-N-(2,2-dimethylpropyl)-N-(2-{[2-(4-hydroxy-2-oxo-2,3-dihydro-1,3-benzothiazol-7-yl)ethyl]amino}ethyl)-β-alaninamide bis-trifluoroacetic acid salt] | 251 | 7.94 | 0.65 |  | 
O=C(CCNCCc1ccc(Cl)c(Cl)c1)N(CCNCCc1ccc(O)c2[nH]c(=O)sc12)C1CCOCC1 [Example 24, N^3-[2-(3,4-Dichlorophenyl)ethyl]-N-(2-{[2-(4-hydroxy-2-oxo-2,3-dihydro-1,3-benzothiazol-7-yl)ethyl]amino}ethyl)-N-(tetrahydro-2H-pyran-4-yl)-β-alaninamide bis-trifluoroacetic acid salt] | 794 | 7.94 | 0.77 |  | 
O=C(CCNCCc1cccc(F)c1)N(CCNCCc1ccc(O)c2[nH]c(=O)sc12)C1CCCCC1 [Example 15, N-Cyclohexyl-N^3-[2-(3-fluorophenyl)ethyl]-N-(2-{[2-(4-hydroxy-2-oxo-2,3-dihydro-1,3-benzothiazol-7-yl)ethyl]amino}ethyl)-β-alaninamide bis-trifluoroacetic acid salt] |  |  |  | 6.4 | 8.6
O=C(CCNCCc1ccc(Cl)cc1)N(CCNCCc1ccc(O)c2[nH]c(=O)sc12)C1CCC(F)(F)CC1 [Example 48, N^3-[2-(4-Chlorophenyl)ethyl]-N^1-(4,4-difluorocyclohexyl)-N^1-(2-{[2-(4-hydroxy-2-oxo-2,3-dihydro-1,3-benzothiazol-7-yl)ethyl]amino}ethyl)-β-alaninamide bis-trifluoroacetic acid salt] | 100 | 10 | 0.55 |  | 
O=C(CCNCCc1ccc2c(c1)OCO2)N(CCNCCc1ccc(O)c2[nH]c(=O)sc12)C1CCCCC1 [Example 76, N^3-[2-(1,3-Benzodioxol-5-yl)ethyl]-N^1-cyclohexyl-N^1-(2-{[2-(4-hydroxy-2-oxo-2,3-dihydro-1,3-benzothiazol-7-yl)ethyl]amino}ethyl)-β-alaninamide bis-trifluoroacetic acid salt] | 200 | 6.31 | 0.68 |  | 
CC(CN(C(=O)CCNCCc1cccc(F)c1)C1CCCCCC1)NCCc1ccc(O)c2[nH]c(=O)sc12 (stereo not drawn) [Example 104, N-Cycloheptyl-N^3-[2-(3-fluorophenyl)ethyl]-N-(2-{[2-(4-hydroxy-2-oxo-2,3-dihydro-1,3-benzothiazol-7-yl)ethyl]amino}propyl)-β-alaninamide bis-trifluoroacetic acid salt] | 63.1 | 5.01 | 0.81 |  | 
O=C(CCNCCc1cccc(Cl)c1)N(CCNCCc1ccc(O)c2[nH]c(=O)sc12)C1CCCC1 [Example 30, N^3-[2-(3-Chlorophenyl)ethyl]-N-cyclopentyl-N-(2-{[2-(4-hydroxy-2-oxo-2,3-dihydro-1,3-benzothiazol-7-yl)ethyl]amino}ethyl)-β-alaninamide bis-trifluoroacetic acid salt] | 316 | 5.01 | 0.96 |  | 
O=C(CCNCCc1ccc(Cl)cc1)N(CCNCCc1ccc(O)c2[nH]c(=O)sc12)C1CCOCC1 [Example 26, N^3-[2-(4-Chlorophenyl)ethyl]-N-(2-{[2-(4-hydroxy-2-oxo-2,3-dihydro-1,3-benzothiazol-7-yl)ethyl]amino}ethyl)-N-(tetrahydro-2H-pyran-4-yl)-β-alaninamide bis-trifluoroacetic acid salt] | 1000 | 7.94 | 0.83 |  | 
O=C(CCNCCc1ccc(F)cc1Cl)N(CCNCCc1ccc(O)c2[nH]c(=O)sc12)C1CCCCCC1 [Example 57, N^3-[2-(2-Chloro-4-fluorophenyl)ethyl]-N^1-cycloheptyl-N^1-(2-{[2-(4-hydroxy-2-oxo-2,3-dihydro-1,3-benzothiazol-7-yl)ethyl]amino}ethyl)-β-alaninamide bis-trifluoroacetic acid salt] | 31.6 | 20 | 0.72 |  | 
CC(C)(CO)CN(CCNCCc1ccc(O)c2[nH]c(=O)sc12)C(=O)CCNCCc1cccc(Cl)c1 [Example 66, N^3-[2-(3-Chlorophenyl)ethyl]-N^1-(3-hydroxy-2,2-dimethylpropyl)-N^1-(2-{[2-(4-hydroxy-2-oxo-2,3-dihydro-1,3-benzothiazol-7-yl)ethyl]amino}ethyl)-β-alaninamide bis-trifluoroacetic acid salt] | 631 | 12.6 | 0.59 |  | 
O=C(CCNCCc1ccccc1Cl)N(CCNCCc1ccc(O)c2[nH]c(=O)sc12)C1CCC(F)(F)CC1 [Example 46, N^3-[2-(2-Chlorophenyl)ethyl]-N^1-(4,4-difluorocyclohexyl)-N^1-(2-{[2-(4-hydroxy-2-oxo-2,3-dihydro-1,3-benzothiazol-7-yl)ethyl]amino}ethyl)-β-alaninamide bis-trifluoroacetic acid salt] | 39.8 | 3.16 | 0.78 |  | 
O=C(CCNCCc1cc(F)cc(F)c1)N(CCNCCc1ccc(O)c2[nH]c(=O)sc12)C1CCCCCC1 [Example 58, N^1-Cycloheptyl-N^3-[2-(3,5-difluorophenyl)ethyl]-N^1-(2-{[2-(4-hydroxy-2-oxo-2,3-dihydro-1,3-benzothiazol-7-yl)ethyl]amino}ethyl)-β-alaninamide bis-trifluoroacetic acid salt] | 158 | 3.98 | 0.84 |  | 
